The source of these data is PubChem BioAssay (NCI).

Test systems include NCI-H460 lung; HOP-92 NSCLC; SF-268 CNS; K-562 leukemia; TK-10 renal; U251 CNS; MOLT-4 leukemia; RXF 393 renal; SW-620 colon.
Holding throughout (assay): NCI tumour cell line growth inhibition, 48 h

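Method: 48-hour compound exposure of cells in 96-well plates, five concentrations, linear interpolation of endpoints. GI50 = concentration required for 50% inhibition of growth. TGI is the concentration that stops growth completely.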

Consider `O=S(=O)([O-])[O-].[OH3+].[OH3+].[OH3+].[Ru+2].c1ccccc1`, for which the GI50 in the experiment on NCI-H460 lung, in the experiment on HOP-92 NSCLC, in the experiment on SF-268 CNS, with K-562 leukemia, in the experiment on TK-10 renal and with U251 CNS was greater than 100 µM each time. Further, the GI50 in the experiment on MOLT-4 leukemia is greater than 100 µM. Also, the TGI in the experiment with NCI-H460 lung, in the experiment on HOP-92 NSCLC, in the experiment on SF-268 CNS, with K-562 leukemia, with TK-10 renal and in the experiment with U251 CNS was greater than 100 µM in each case. Moreover, the TGI with MOLT-4 leukemia is greater than 100 µM.

As for `CC(C)(C)NNC(=O)/C(=C/c1ccc(Oc2ccc(Cl)c(Cl)c2)cc1)NC(=O)c1ccccc1`, the TGI with NCI-H460 lung, in the experiment with HOP-92 NSCLC, in the experiment with SF-268 CNS, with K-562 leukemia, in the experiment on TK-10 renal and in the experiment with RXF 393 renal was greater than 100 µM each time. In addition, the TGI in the experiment on U251 CNS and with MOLT-4 leukemia was greater than 100 µM in each case.

For `CCN(CC)CCCN(c1cc(OC)cc2nccnc12)S(=O)(=O)c1ccc(C)cc1`, the TGI with NCI-H460 lung, in the experiment on HOP-92 NSCLC, in the experiment on SF-268 CNS, in the experiment with K-562 leukemia, in the experiment on TK-10 renal and in the experiment with RXF 393 renal was greater than 100 µM throughout. Besides, the TGI in the experiment on SW-620 colon, in the experiment with U251 CNS and in the experiment on MOLT-4 leukemia was greater than 100 µM in each case.

Regarding `CC(=O)N(C)OC(=O)CC(=O)c1ccccc1`, the TGI with NCI-H460 lung, with HOP-92 NSCLC, in the experiment on SF-268 CNS, with K-562 leukemia, in the experiment on TK-10 renal and in the experiment on RXF 393 renal was greater than 100 µM throughout. The TGI with SW-620 colon, with U251 CNS and with MOLT-4 leukemia was greater than 100 µM each time.

As to `CC(C)C(C(=O)O)N(CC1(O)OCC(O)C(O)C1O)N=O` (stereo unspecified), the TGI with NCI-H460 lung, in the experiment on HOP-92 NSCLC, in the experiment on K-562 leukemia, in the experiment with TK-10 renal, in the experiment on RXF 393 renal and in the experiment on SW-620 colon was greater than 100 µM throughout. For the same molecule, the TGI in the experiment on U251 CNS and in the experiment on MOLT-4 leukemia was greater than 100 µM in each case.

Regarding `Nc1ccccc1C#CC#Cc1ccccc1N`, the GI50 with NCI-H460 lung is 11.8 µM; in the experiment on HOP-92 NSCLC, 1.37 µM; in the experiment with K-562 leukemia, 5.78 µM; in the experiment on TK-10 renal, 12.5 µM; with RXF 393 renal it was 25.6 µM; with SW-620 colon it was 15.7 µM. Also, the results for the GI50 with U251 CNS and in the experiment on MOLT-4 leukemia were 8.53 µM and 16.3 µM, respectively. Also, the TGI in the experiment on NCI-H460 lung is 28.4 µM; in the experiment on HOP-92 NSCLC, 96.7 µM; in the experiment with K-562 leukemia, greater than 100 µM; in the experiment on TK-10 renal it was 32.9 µM; in the experiment with RXF 393 renal, 67.7 µM; in the experiment with SW-620 colon, 35.3 µM. The TGI in the experiment with U251 CNS is 21 µM; in the experiment with MOLT-4 leukemia, greater than 100 µM.

With `O=C1C=CC(=O)c2c1ccc1c3ccccc3n(-c3ccccn3)c21`, the TGI is greater than 100 µM in the experiment with NCI-H460 lung; 29.9 µM in the experiment on HOP-92 NSCLC; greater than 100 µM with SF-268 CNS; 51.1 µM with K-562 leukemia; 30.5 µM in the experiment on TK-10 renal; greater than 100 µM in the experiment on U251 CNS. This molecule came in with a TGI in the experiment on MOLT-4 leukemia of 84.5 µM.

Consider `COC(=O)c1c[nH]cc1CCc1c[nH]cc1C(=O)OC`, for which the TGI in the experiment on NCI-H460 lung, in the experiment with HOP-92 NSCLC, in the experiment with SF-268 CNS, with K-562 leukemia, in the experiment on TK-10 renal and in the experiment on RXF 393 renal was greater than 100 µM in each case. In addition, the TGI in the experiment with SW-620 colon, in the experiment with U251 CNS and in the experiment on MOLT-4 leukemia was greater than 100 µM in each case.

`C/C(CN1C(=O)c2ccccc2C1=O)=N\NS(=O)(=O)c1cccc([N+](=O)[O-])c1`: the TGI in the experiment on NCI-H460 lung, with SF-268 CNS, in the experiment with K-562 leukemia, in the experiment on TK-10 renal, in the experiment on RXF 393 renal and in the experiment on SW-620 colon was greater than 100 µM each time. Besides, the TGI in the experiment on U251 CNS and in the experiment on MOLT-4 leukemia was greater than 100 µM each time.

Regarding `NC(=S)/N=C/c1c(O)c2ccccc2oc1=O`, the TGI with NCI-H460 lung is greater than 100 µM; with HOP-92 NSCLC, greater than 100 µM; in the experiment on SF-268 CNS, greater than 100 µM; with K-562 leukemia, greater than 100 µM; with TK-10 renal, greater than 100 µM; in the experiment on RXF 393 renal, 86.4 µM. For the same molecule, the TGI with SW-620 colon, in the experiment on U251 CNS and in the experiment with MOLT-4 leukemia was greater than 100 µM throughout.

For the molecule `CCCN1C(=O)C/C(=C\C(C)=O)Nc2ccccc21`, the TGI with NCI-H460 lung, with HOP-92 NSCLC, with SF-268 CNS, with K-562 leukemia, in the experiment on TK-10 renal and in the experiment on RXF 393 renal was greater than 100 µM throughout. Moreover, the TGI in the experiment on SW-620 colon, in the experiment with U251 CNS and in the experiment with MOLT-4 leukemia was greater than 100 µM each time.

With `CCCc1c2c([nH]c(=O)c1C)C(=O)c1[nH]c(=O)c(C)c(CCC)c1C2=O`, the TGI was 77.3 µM in the experiment on NCI-H460 lung; 93.8 µM in the experiment with HOP-92 NSCLC; 87.4 µM in the experiment on SF-268 CNS; 67.1 µM in the experiment on K-562 leukemia; greater than 100 µM in the experiment on TK-10 renal; 69.2 µM with RXF 393 renal. The TGI in the experiment with SW-620 colon worked out at 20.2 µM; in the experiment with MOLT-4 leukemia, 57 µM.

In the case of `Cc1ccc(S(=O)(=O)N/N=C(\CCN2CCCC2)CC(c2ccccc2)c2c(O)c3ccccc3oc2=O)cc1` (stereo unspecified), the TGI with NCI-H460 lung, with HOP-92 NSCLC, with SF-268 CNS, in the experiment with K-562 leukemia, in the experiment on TK-10 renal and with RXF 393 renal was greater than 100 µM throughout. Further, the TGI in the experiment with SW-620 colon and in the experiment on U251 CNS was greater than 100 µM each time.

Consider `C/C(=N\N=C(N)N)C(CN(CC(C)C)CC(C)C)C(=O)Nc1ccc(C)cc1C` (stereo unspecified), for which the TGI in the experiment with NCI-H460 lung, in the experiment with HOP-92 NSCLC, with SF-268 CNS, in the experiment on K-562 leukemia, in the experiment with TK-10 renal and in the experiment on RXF 393 renal was greater than 100 µM throughout. Further, the TGI in the experiment on SW-620 colon, in the experiment on U251 CNS and in the experiment on MOLT-4 leukemia was greater than 100 µM throughout.
